US11358956B2, “Compounds containing polysubstituted benzo[d][1,3]oxathiole, benzo[d][1,3]oxathiole 3-oxide or benzo[d][1,3]oxathiole 3,3-dioxide and methods/uses thereof as agonists of G protein-coupled receptor 119” (PRAMANA PHARMACEUTICALS INC., priority 2017, dated 2022)
Where two headings read alike, the source gives them in different places.

Assays:
human GPR119 receptor [1] = target: T1, human GPR119 receptor (Homo sapiens, UniProt Q8TDV5); experiment: LANCE Ultra cAMP assay: stimulation of GPR119-mediated cAMP production in CHO cells stably expressing human GPR119 receptor; format: cell-based
T1 construct: host or cells: CHO
T1 sequence (Q8TDV5 1-335): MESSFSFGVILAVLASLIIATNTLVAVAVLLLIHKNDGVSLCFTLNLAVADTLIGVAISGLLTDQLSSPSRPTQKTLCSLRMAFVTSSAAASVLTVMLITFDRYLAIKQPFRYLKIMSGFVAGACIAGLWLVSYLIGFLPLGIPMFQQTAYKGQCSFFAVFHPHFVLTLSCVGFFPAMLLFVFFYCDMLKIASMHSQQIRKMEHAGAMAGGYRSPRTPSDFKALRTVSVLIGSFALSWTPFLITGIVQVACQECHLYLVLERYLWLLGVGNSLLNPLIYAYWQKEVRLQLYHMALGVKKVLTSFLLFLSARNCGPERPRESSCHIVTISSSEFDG
Protocol: The potency of GPR119 receptor agonists was assessed by measuring the stimulation of GPR119-mediated cAMP production with LANCE Ultra cAMP assay (Perkin Elmer, TRF0264) in CHO cells stably expressing human GPR119 receptor (Chantest, cat. #A633). CHO-GPR119 cells were cultured in DMEM/F12 medium supplemented with 10% FBS and 1% NEAA at 37° C., 5% CO2, aliquoted and frozen in liquid nitrogen.
For assay, cells were thawed in a water bath at 37° C., washed in Hank's Balanced Salt Solution (HBSS) and resuspended in Stimulation Buffer 1 (SB1) for 30 min: 5 mM HEPES, pH 7.2-7.4, 0.1% BSA in HBSS. […] The ULight-anti-cAMP antibody (Perkin Elmer, TRF0264) was added to the cell suspension making Mix [Cell suspension/4× ULight-anti-cAMP antibodies]. The resulting cell suspension Mix was plated to 384-well assay plates (Corning, white low volume, #3674) 5 µL/well. The assay plate was centrifuged 200 g, 5 sec.
Serial dilution (100×) of tested compounds were prepared in DMSO in the range of from 30 nM to 1 mM with half-log step in 384-well plates (Greiner, 781280) using Biomek 2000. 10 test concentrations in two repeats were prepared for each CRC. It was diluted 50 times in SB1 and each tested concentration was added to cells in the assay plate—5 µL/well. The assay plate was incubated 30 minutes at room temperature on a shaker, 250 rpm to allow GPR119 receptor stimulation. The cAMP level was determined according to the standard kit supplier protocol (PerkinElmer, cat. #TRF0264).
The stock solution of the Eu-cAMP tracer (Perkin Elmer, TRF0264) was diluted 1:100 in cAMP Detection Buffer (Perkin Elmer, TRF0264), making 2× working concentration and added to the assay plate, 10 μL per well. Assay plate was centrifuged 180 g, 1 sec. Then the assay plate was incubated for 60′ at room temperature on shaker, 250 rpm to allow cAMP detection. The TR-FRET signal was measured at Ex-340 nm/Em-615 and Ex-340 nm/Em-665 nm on the reader Tecan M1000. 0% of cAMP stimulation corresponds to the cells with DMSO only, 100% of cAMP stimulation corresponds to the cells with […] Forskolin. The EC50 value defined as the concentration of the drug that gives half-maximal response, were calculated using GraphPad Prizm 5.0 software with forskolin was used as references at each test. Entries 1-17 in Table 2A and entries 1-14 in Table 2B show the biological activity of certain representative compounds using the protocol as described above.

human GPR119 receptor [2] = target: T1, human GPR119 receptor; experiment: as above; format: cell-based; details: read-out: % cAMP Max. relative to forscolin
[3] = Table 2C entries 1-4, modified protocol, 500 cells/well
[4] = Table 2A entries 1-17, protocol as described (800,000 cells/mL suspension), CHO-GPR119 cells

Row | SMILES | EC50 (human GPR119 receptor [1]; [3]) | Emax (human GPR119 receptor [2]; [3]) | EC50 (human GPR119 receptor [1]; [4]) | Emax (human GPR119 receptor [2]; Table 2A entries 1-17, protocol as described, 100% = cells with Forskolin, 0% = DMSO only)
1 | O=S1(=O)c2ccc(-c3ccc(OCC4CCN(c5ncc(Cl)cn5)CC4)c(F)c3)cc2OC12CCCCC2 [Example C-11, 5-chloro-2-(4-{[4-(3,3-dioxidospiro[1,3-benzoxathiole-2,1′-cyclohexan]-6-yl)-2-fluorophenoxy]methyl}piperidin-1-yl)pyrimidine] | 33 nM | 25% | – | –
2 | NCC(=O)N1CCC(COc2ccc(-c3ccc4c(c3)OCS4(=O)=O)cc2F)CC1 [Example A-17] | – | – | 10000 nM | –
3 | CC1(C)Oc2cc(-c3ccc(OCC4CCN(c5ncc(Cl)cn5)CC4)c(F)c3)ccc2S1(=O)=O [Example C-5, 5-chloro-2-(4-{[4-(2,2-dimethyl-3,3-dioxido-1,3-benzoxathiol-6-yl)-2-fluorophenoxy]methyl}piperidin-1-yl)pyrimidine] | 68.6 nM | 81% | – | –
4 | O=S1(=O)c2ccc(-c3ccc(OCC4CCN(c5ncc(Cl)cn5)CC4)c(F)c3)cc2OC12CCCC2 [Example C-8, 5-chloro-2-(4-{[4-(3,3-dioxidospiro[1,3-benzoxathiole-2,1′-cyclopentan]-6-yl)-2-fluorophenoxy]methyl}piperidin-1-yl)pyrimidine] | 114 nM | 66% | – | –
5 | O=C(O)CN1CCC(COc2ccc(-c3ccc4c(c3)OCS4(=O)=O)cc2F)CC1 [Example A-23, 2-(4-((4-(3,3-Dioxido-2H-benzo[d][1,3]oxathiol-6-yl)-2-fluorophenyoxy) Methyl)-piperidin-1-yl)acetic Acid] | – | – | 7040 nM | 66%
6 | NC(=O)N1CCC(COc2ccc(-c3ccc4c(c3)OCS4(=O)=O)cc2F)CC1 [Example A-20] | – | – | 10000 nM | –
7 | O=S1(=O)c2ccc(-c3ccc(OCC4CCN(c5ncc(Cl)cn5)CC4)c(F)c3)cc2OC12CCC2 [Example C-14, 5-chloro-2-(4-{[4-(3,3-dioxidospiro[1,3-benzoxathiole-2,1′-cyclobutan]-6-yl)-2-fluorophenoxy]methyl}piperidin-1-yl)pyrimidine] | 29.8 nM | 67% | – | –
